From ChEMBL document CHEMBL4725372, “Rational Design of Suprastat: A Novel Selective Histone Deacetylase 6 Inhibitor with the Ability to Potentiate Immunotherapy in Melanoma Models” (J Med Chem, 2020) come the findings set out here.

Data set [1] concerns Mus musculus. The data set is described as follows: Immunomodulatory activity in C57BL/6 mouse harboring mouse SM1 cells assessed as effect on immunosuppressive T-regs at 25 mg/kg, ip dosed 5 days per week by flow cytometry. The settings on record: time 5.0 day/week. The data set is classed as functional, organism-based. A general note: Flow cytometry measures light scatter and fluorescence of single cells or particles in a stream.

The test system of another data set is HEK293. Kind of data set: Selectivity index, ratio of IC50 for human HDAC3 expressed in HEK293/T17 cells (unknown origin) to human HDAC6 expressed in HEK293/T17 cells. The data set is classed as cell-based.
Data set [2] deals with T1, Protein deacetylase HDAC6 (Mus musculus) (UniProt Q9Z2V5).
T1 sequence (whole entry): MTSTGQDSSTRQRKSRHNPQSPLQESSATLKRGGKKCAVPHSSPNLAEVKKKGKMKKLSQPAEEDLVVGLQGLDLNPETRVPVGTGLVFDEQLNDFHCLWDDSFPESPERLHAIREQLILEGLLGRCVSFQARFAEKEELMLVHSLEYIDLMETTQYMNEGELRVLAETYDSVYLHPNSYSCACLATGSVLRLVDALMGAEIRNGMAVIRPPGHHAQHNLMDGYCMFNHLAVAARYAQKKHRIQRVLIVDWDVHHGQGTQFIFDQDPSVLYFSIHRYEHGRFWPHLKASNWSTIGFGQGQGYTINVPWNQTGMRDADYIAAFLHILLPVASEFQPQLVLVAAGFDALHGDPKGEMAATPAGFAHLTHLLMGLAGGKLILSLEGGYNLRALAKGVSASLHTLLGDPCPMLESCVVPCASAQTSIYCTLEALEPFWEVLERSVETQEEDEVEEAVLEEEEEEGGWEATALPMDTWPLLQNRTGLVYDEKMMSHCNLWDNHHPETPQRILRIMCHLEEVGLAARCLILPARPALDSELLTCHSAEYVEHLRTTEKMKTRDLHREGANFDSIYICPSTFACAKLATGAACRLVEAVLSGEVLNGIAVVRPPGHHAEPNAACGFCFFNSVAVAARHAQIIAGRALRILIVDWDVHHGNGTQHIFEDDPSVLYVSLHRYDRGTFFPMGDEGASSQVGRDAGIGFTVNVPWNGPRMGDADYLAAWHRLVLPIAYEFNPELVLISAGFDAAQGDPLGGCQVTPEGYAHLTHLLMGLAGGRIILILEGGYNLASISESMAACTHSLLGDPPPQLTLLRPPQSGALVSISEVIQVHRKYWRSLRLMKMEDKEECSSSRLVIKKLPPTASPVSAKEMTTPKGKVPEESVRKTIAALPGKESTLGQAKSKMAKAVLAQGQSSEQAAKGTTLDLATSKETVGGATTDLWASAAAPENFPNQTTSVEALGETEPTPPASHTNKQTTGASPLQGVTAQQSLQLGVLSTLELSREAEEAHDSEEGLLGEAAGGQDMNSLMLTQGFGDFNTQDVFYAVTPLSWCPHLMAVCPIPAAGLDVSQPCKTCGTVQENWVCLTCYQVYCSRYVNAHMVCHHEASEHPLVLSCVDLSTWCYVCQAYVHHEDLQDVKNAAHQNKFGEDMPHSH
Kind of data set: Inhibition of HDAC6 in INFgamma and LPS-induced mouse bone marrow derived macrophages assessed as decrease in IL10 gene expression at 5 uM by quantitative PCR analysis. The format is tissue-based. As to conditions: Macrophage.

Data set [3] relates to Mus musculus. Kind of data set: Immunomodulatory activity in C57BL/6 mouse harboring mouse SM1 cells assessed as reduction in F4/80+ CD206+ pro-tumor M2 macrophages at 25 mg/kg, ip dosed 5 days per week by flow cytometry. The data set is classed as functional, organism-based. As to conditions: time 5.0 day/week.
Data set [4] relates to Mus musculus. The data set is described as follows: Immunomodulatory activity in C57BL/6 mouse harboring mouse SM1 cells assessed as increase in natural killer cells at 25 mg/kg, ip dosed 5 days per week before by flow cytometry. The format is functional, organism-based. The settings on record: time 5.0 day/week.
Data set [5] in a line: Half life in rat liver microsome at 10 uM by LC-MS/MS analysis. The format is ADME. The settings on record: liver microsomes. A general note: Liver microsomes are a subcellular fraction often used to study metabolism.

Structures are written as SMILES. Calls of active or inactive are those of the source. The rule behind the calls is not given here.

As to `NCc1ccc(NC(=O)N(CCCCO)Cc2ccc(C(=O)NO)cc2)cc1`, the outcome with Mus musculus [1] was inactive. In the data set with HEK293, the Ratio IC50 turned out to be 880. In addition, in data set [2], the inhibition result was “Active”. Besides, the result with Mus musculus [3] and in the data set with Mus musculus [4] was Active. The half-life (commonly the time in which the quantity being followed falls by half) at 10 µM in data set [5] was 2.95 h.
